Experiment [1] relates to Foxo3a transcriptional activity in HEK293 cells co-transfected with 14-3-3β. The experiment is described as follows: Foxo3a luciferase reporter gene assay. Conditions: for Foxo3a transcriptional activity, effect in words: HEK293, luciferase reporter, PI3K inhibitors as controls, peptide 4 h. The class given is cell-based, human. The method, then: Jurkat cells were cultured in RPMI medium containing phenol red supplemented with 10% (v/v) heat deactivated fetal calf serum and 100 U/mL penicillin/streptomycin at 37°C in humidified atmosphere of 5% CO2. HEK293 cells were cultured in Dulbecco's modified eagle high glucose medium supplied with 10% fetal calf serum and 100 U per mL penicillin/streptomycin. Cell transfection was carried out by Jetprime® according to the manufacturer's recommendation (Polyplus, Illkirch, France).
Forkhead box protein 3a induced transcriptional activity was measured on transiently transfected HEK293 cells (5 × 10^4). The reporter plasmid encoding luciferase under the control of a promotor containing forkhead responsive elements and the human p-Foxo3a-HA plasmid were gifts of Michael Greenberg provided by the Addgene consortium (#1787 and #1789; Brunet et al., [1999]). The plasmids encoding the mouse p-14-3-3 beta-GST protein and the functional forkhead transcription factor were used in a 1.5-fold amount compared to the reporter construct. The transfection was completed after 6 h and the cells could recover for 4 h in growth medium. The cells were serum starved using 1% (v/v) fetal bovine serum in phenol red free DMEM medium supplemented with antibiotics overnight. After 4 h peptide and 24 h of fusicoccin-A treatment the luciferase assay was developed using luciferase development kit from Promega E151 (Wisconsin, United States) and the luminescence was measured on a synergy H4 plate reader (Biotek). Control compounds were the PI3K inhibitors wortmannin and LY294002 (both Sigma Aldrich). The recorded data were normalized to the non-treated control sample. Significance and IC50-values were calculated from at least two biological replicates using GraphPad Prism. Data analysis was performed by non-linear regression using a four parameter Hill equation.
If not stated in detail for the respective single experiment the statistical tests were performed using GraphPad Prism 5.04 (GraphPad, La Jolla, CA) using one-way ANOVA with Bonferonni or Dunnett's Post-hoc test. The number of technical and biological repeats was justified by analysis of error and reproducibility of results. Significance threshold P < 0.05 was applied to all experiments. For the data shown in Figure 3 three individuals for the in vivo experiments were used and each data point was performed in three technical replicates. The pull down experiments shown in Figures 4A,B were performed a single time and the data represent two technical repeats. Gel lanes were loaded with single (1x) or doubled (2x) amount of pull down proteins for better visibility. The data illustrated in Figures 4C,D were performed in two independent experiments. Silver stained gel lanes were evaluated by loading various amounts, and then the amount with optimized staining contrast was loaded and used for in-gel protein digestion. The pull down experiments shown in Figures 4E,F were performed a single time. The Western Blots and the pull down experiment shown in Figure 5 represent experiments in three and two independent experiments, respectively. Experiments in a well-based format (Figure 6) were performed with three technical and two biological replicates. All data illustrated in this manuscript show the mean ± standard deviation (SD) unless stated otherwise. The MS based protein identifications were performed in two technical analyses for each sample.
Figure 6 Foxo3a luciferase reporter assay. The modulation of the Akt/PI3K/Foxo3a pathway by the cyclotide [T20K]kB1 binding to 14-3-3 proteins was investigated. HEK293 cells were transiently transfected with Foxo3a-Luc plasmid encoding luciferase under a promotor with Foxo response elements, Foxo3a and 14-3-3β. For control the reporter plasmid (basal value) was also co-transfected with the single functional effector proteins 14-3-3β or Foxo3a. Cells were treated under starving conditions with peptide or fusicoccin-A (FC-A) for 4 h or 24 h, respectively. […]
(A reporter such as luciferase makes a cellular process visible.)

Experiment [2] has as its system 14-3-3 proteins. To be noted: cited from earlier work. An excerpt: There are generally two types of 14-3-3 ligands: (i) inhibitors or (ii) stabilizers. […] In contrast, 14-3-3 stabilizers enforce a protein-protein interaction and they may account for an increased retention of 14-3-3 complexed proteins in the cytosol or other cellular compartments (Ottmann, [2013]; Bier et al., [2015]).

Experiment [3] concerns GST-tagged 14-3-3β. Put plainly: co-precipitation of GST-tagged 14-3-3β with cyclotide probe and competitors. The experiment is classed as binding. Conditions: immunoblot and far Western blot; 2 h at 4°C; competitors 150–500-fold molar excess. The method, then: (§1) Splenocytes or Jurkat cells were lysed with 25 mM Tris-HCl pH 7.4, 40 mM KCl, 2.5 mM MgSO4 2.5 mM CaCl2, 2% (v/v) glycerol, 1 mM EDTA under repeated freeze-thaw cycles and 10 min sonification. All experiments were performed in buffer with 1x complete protease inhibitor cocktail (Hoffman-La Roche, Basel, Switzerland). Cell membranes and debris were pelleted for 30 min at 16,000 × g and the supernatant corresponds to the “soluble cell lysate.” Protein concentration was determined using a bicinchoninic acid assay kit (Thermo Scientific) and DTT (1 mM) was added to keep redox potential constant during binding experiments. Photo-affinity pull down samples were submitted to denaturing sodium dodecyl sulfate polyacrylamide gel electrophoresis (PAGE). For immunoblotting according to earlier published protocols (Gruber et al., [2007]; Bergmayr et al., [2013]) proteins were semi-dry transferred onto a nitrocellulose membrane 0.45 μM (Amersham Protran, GE Healthcare, Austria) using a Fast Semi-dry blotter (Bio-Rad) at 0.25 mA per gel for 1 h. Primary rabbit anti-GFP antibody (1:5,000) was from Invitrogen (A6455), rabbit anti-GST antibody (1:2,500) from Abcam (ab9085), and mouse anti-human calcineurin subunit A antibody (1:2,000) clone BE2.1 from eBioscience. Secondary ECL anti-mouse (NA931V) or ECL anti-rabbit (NA934VS) IgG antibodies (1:10,000) were conjugated with horse radish peroxidase (GE Healthcare). Chemo-luminescence signals were detected on an imaging system FluorChem HD2 (Alpha Innotech, CA, United States). For silver staining protein gels were treated immediately after electrophoresis with fixing solution EtOH/ddH2O/acetic acid 50/40/10% (v/v/v) for 20 min. Gels had to be washed acid free, first with 50% (v/v) EtOH for 10 min and with ddH2O for 2 h. Gels were exposed to sensitization buffer 0.025% Na2S2O3 in ddH2O for 3 min, followed by 2 min wash with ddH2O. Gels were silver loaded using a 0.15% AgNO3 solution for 45 min in the dark. The protein bands were stained in development buffer formaldehyde/Na2CO3 0.04/2% (v/w) under rigorous shaking. The reaction was quenched with 5% (v/v) acetic acid solution and the gels were stored until further processing in the stopping buffer at 4°C. Pixel quantification was carried out using ImageJ v1.47 (National Institute for Health).
Biotin-LC-LC-labeled (ThermoFisher) peptides (1–5 nmoles) with or without ([…]) were incubated with Jurkat cell or murine splenocyte cell lysates (150–500 μg proteins) for 2 h at 4°C in the presence of protease inhibitors. UV-activation of photo-crosslinking moiety benzophenone was induced by irradiation at 360 nm on ice for 15 min (Stratalinker, Stratagene, CA, United States). […]
On the technique in general: Immunoblotting shows a protein as a band on a membrane.

The subject of experiment [4] is myelin oligodendrocyte glycoprotein (MOG)-immunized mouse splenocytes. Put plainly: anti-proliferation assay of MOG-restimulated splenocytes from 2D2 mice. The experiment is classed as cell-based. To be noted: summary in words; [T20K,W23Bpa]kB1 versus [T20K]kB1, 4 μM. The protocol:
Biological integrity of probes was determined using their reported immunosuppressive activity (Grundemann et al., [2013]; Thell et al., [2016]). Briefly, activity was measured in isolated lymphocytes derived from self-donated human venous blood or mouse splenocytes derived from 2D2 myelin oligodendrocyte glycoprotein specific T-cell receptor transgenic mice on a C57Bl/6 background [C57Bl/6-Tg(Tcra2D2,Tcrb2D2) Kuch/J]. These mice develop spontaneous experimental autoimmune encephalomyelitis, a mouse model of multiple sclerosis. Bioactivity was assessed by T-cell proliferation using FACS or cytokine concentration analysis of interleukin-2 in the supernatant of ex vivo re-stimulated splenocytes for 72 h using an ELISA kit and antibodies from eBioscience® (Grundemann et al., [2013]; Thell et al., [2016]). All experiments were approved according to the European Community rules of animal care with the permission of the Austrian Ministry of Science (BMWF-66.009/0241-II/3B/2011).
If not stated in detail for the respective single experiment the statistical tests were performed using GraphPad Prism 5.04 (GraphPad, La Jolla, CA) using one-way ANOVA with Bonferonni or Dunnett's Post-hoc test. […] Silver stained gel lanes were evaluated by loading various amounts, and then the amount with optimized staining contrast was loaded and used for in-gel protein digestion. […]

Experiment [5] deals with 14-3-3 proteins / 25 kDa protein band in murine splenocyte lysates. Put plainly: photo-affinity pull down, splenocyte lysate, with competitors. The class given is binding, mouse. To be noted: for competition effect for 14-3-3 proteins (order): competitors at 100-fold molar excess versus bait [T20K,W23Bpa]kB1, in-gel digestion and proteomics. The method, then: as §1
Biotin-LC-LC-labeled (ThermoFisher) peptides (1–5 nmoles) with or without (non-biotinylated) competitor (20–100-fold molar excess) were incubated with Jurkat cell or murine splenocyte cell lysates (150–500 μg proteins) for 2 h at 4°C in the presence of protease inhibitors. UV-activation of photo-crosslinking moiety benzophenone was induced by irradiation at 360 nm on ice for 15 min (Stratalinker, Stratagene, CA, United States). […]

In the case of `COC[C@H]1OC(=O)c2coc3c2[C@@]1(C)C1=C(C3=O)[C@@H]2CCC(=O)[C@@]2(C)C[C@H]1OC(C)=O` [wortmannin, reference compound], the “Foxo3a transcriptional activity, effect in words” value in experiment [1] is given as “increased transcriptional activity”.

With `NC(=O)c1ncn([C@@H]2O[C@H](CO)[C@@H](O)[C@H]2O)c1O` [mizoribine], the “modulation of 14-3-3 protein function” value in experiment [2] (ref Kawasaki, 2009) is recorded as “modulate 14-3-3 protein function”.

Turning to `C=CC(C)(C)OC[C@H]1O[C@H](O[C@@H]2C3=C([C@H](C)COC(C)=O)C[C@H](O)[C@]3(C)/C=C3/[C@@H](COC)CC[C@H]3[C@@H](C)[C@H]2O)[C@H](O)[C@@H](OC(C)=O)[C@@H]1O` [fusicoccin-A, reference compound], the “effect as 14-3-3 stabilizer” value in experiment [2] (ref Skwarczynska et al., 2013, Bier et al., 2015, Milroy et al.) is on record as “enforce protein complex formation of 14-3-3s with transcription factors”. Further, the IC50 – broadly, the midpoint of a concentration-inhibition curve – in experiment [1] (HEK293 transfected with Foxo3a-Luc, Foxo3a and 14-3-3β, fusicoccin-A treatment 24 h, IC50 ± SD, two independent experiments, four parameter Hill fit, read-out: IC50, reduction of luciferase signal) was determined as 39.1 ± 2.34 µM.

Take `O=c1cc(N2CCOCC2)oc2c(-c3ccccc3)cccc12` [LY294002, reference compound]: the “Foxo3a transcriptional activity, effect in words” value in experiment [1] was “increased transcriptional activity”.

Turning to “CGETCVGGTCNTPGCKCSXPVCTRNGLPV (bicyclic or more) [[T20K,W23Bpa]kB1]”, the “binding of probe [T20K,W23Bpa]kB1 to 14-3-3β in presence of competitor” value in experiment [3] is on record as “significantly altered”. Moreover, the “biological activity of probe” value in experiment [4] is given as “retained biological activity”. For the same compound, the “competition effect for 14-3-3 proteins (order)” value in experiment [5] was “competition effect in the order [T20K]kB1 < [T20K,W23Bpa]kB1 < R18”.

For “PHCVPRDLSWLDLEANMCLP [R18, reference compound]”, the “binding of probe [T20K,W23Bpa]kB1 to 14-3-3β in presence of competitor” value in experiment [3] is “significantly altered”. For the same compound, the “effect as 14-3-3 inhibitor on Foxo3a” value in experiment [2] (ref Arrendale et al., 2012) was “increase Foxo3a nuclear import to induce pro-apoptotic transcriptional activity”. The “effect on intensity of protein bands” value in experiment [5] (competitor at 100-fold molar excess, silver stained gel) was “did not alter the intensity of protein bands throughout the sample”. Moreover, the “competition effect for 14-3-3 proteins (order)” value in experiment [5] was “competition effect in the order [T20K]kB1 < [T20K,W23Bpa]kB1 < R18”.

These data come from publication PMC5641551, “Chemical Proteomics for Target Discovery of Head-to-Tail Cyclized Mini-Proteins” (Frontiers in Chemistry, 2017).
